# What was measured:
# MCF-10A neoT cells = test: MTS cell viability assay; settings: 24 h, concentrations used to monitor ECM degradation
# Experimental: The cells were seeded at 6 × 10^4 cells/well into a 96-well microplate and incubated overnight for attachment. The cells were then treated with the inhibitor (at 1, 2.5, or 5 μM) or DMSO (0.1%) in 100 μL for 24 h. After incubation, 10 μL of the reagent MTS was added to the wells, and the absorbance of formazan was measured at 492 nm on a Tecan Infinite M1000 instrument (Mannedorf, Switzerland). Cell viability (%) was expressed as the ratio between absorbance in the presence of the compounds and that in the presence of DMSO. All assays were performed in quadruplicate and repeated twice.
# HeLa cells = test: MTT cytotoxicity assay, HeLa; assay type: cell-based, human; settings: 72 h incubation
# Experimental: (§1) Its cytotoxicity was determined in the human HeLa cervical cancer cell line, the drug-sensitive Colo205 and its resistant counterpart, the ABCB1 expressing Colo320 colon adenocarcinoma cancer cell lines, using the colorimetric 3-(4,5-dimethylthiazol-2-yl)-2,5-diphenyltetrazolium bromide (MTT) test. To investigate the selectivity toward cancer cells, the noncancerous fibroblast CCD-19Lu cell line was included.
# (§2) The tested compound was dissolved in DMSO to prepare a 5 mM stock solution, which was diluted in complete culture medium, to study the effect of compounds on cell growth of human colonic adenocarcinoma cell lines. Doxorubicin was used as the positive control. The cells were treated with a trypsin-versene (EDTA) solution. Cells were adjusted to a density of 1 × 10^4 cells in 100 μL of the appropriate culture medium and were added to each well, with the exception of the medium control wells. Except for the semiadherent Colo205 and Colo320 cell lines, the other adherent cell lines were seeded 24 h prior to the assay. Then, stock solutions were diluted in the appropriate culture medium, and 2-fold serial dilutions of compounds were prepared in 100 μL of the medium, horizontally. […] Cell growth was determined by measuring the optical density (OD) at 540/630 nm with a Multiscan EX ELISA reader (Thermo Labsystems, Cheshire, WA). […]
# [1] = target: T1, cathepsin B (exopeptidase activity) (Homo sapiens, UniProt P07858); test: Relative inhibition of cathepsin B exopeptidase activity; assay type: biochemical; settings: 50 μM; substrate Abz-Gly-Ile-Val-Arg-Ala-Lys-(Dnp)-OH; pH 5.0
# T1 construct: made in house; host or cells: E. coli
# Description: (§3) Relative inhibition is expressed as a percentage of the decrease in reaction velocity in the presence of an inhibitor, in comparison to the reaction velocity in the absence of an inhibitor. For that purpose, the specific fluorogenic substrates Z-Arg-Arg-7-amido-4-methylcoumarin (Z-Arg-Arg-AMC) and 2-aminobenzoyl (Abz)-Gly-Ile-Val-Arg-Ala-Lys-(Dnp)-OH were used for cathepsin B endopeptidase and exopeptidase activities, respectively, and Z-Phe-Arg-AMC was used for cathepsin L and V activities.
# (§4) Human recombinant cathepsin B was expressed in E. coli, recombinant cathepsin V was expressed in Pichia pastoris, and human recombinant cathepsin L was expressed in E. coli, as reported. − For the determination of cathepsin B endopeptidase and exopeptidase activities, 100 mM phosphate buffer (pH 6.0) and 60 mM acetate buffer (pH 5.0) were used, respectively, and for the determination of cathepsin V and L activities, 100 mM acetate buffer (pH 5.5) was used. All buffers contained 0.1% PEG 8000 (Sigma-Aldrich, St. Louis, MO), 5 mM cysteine, and 1.5 mM EDTA. Prior to the assay, the enzymes were activated in the assay buffer for 5 min at 37 °C.
# (§5) To determine the effect of inhibitors on enzyme activity, the following substrates were used: Z-Arg-Arg-AMC (final concentration 5 μM, Z-RR-AMC; Bachem, Bubendorf, Switzerland) for cathepsin B endopeptidase activity, Abz-Gly-Ile-Val-Arg-Ala-Lys-(Dnp)-OH (final concentration 1 μM, Abz-GIVRAK-(Dnp)-OH; Bachem) for cathepsin B exopeptidase activity, and Z-Phe-Arg-AMC (final concentration 2 μM, Z-FR-AMC; Bachem) for cathepsin V and L activity. The substrate ([…]) at a final concentration and inhibitor ([…]) at a concentration of 50 μM were added to the wells of a black microplate. The reaction was then initiated by adding 90 μL of activated enzyme (final concentrations: 5 nM cathepsin B for its endopeptidase activity, 0.5 nM cathepsin B for its exopeptidase activity, 2.5 ng/mL for cathepsin V, and 0.02 nM for cathepsin L) in the assay buffer. The formation of fluorescent degradation products during the reaction was continuously monitored at 460 ± 10 nm with excitation at 380 ± 20 nm for Z-Arg-Arg-AMC and Z-Phe-Arg-AMC and at 420 ± 10 nm with excitation at 320 ± 20 nm for Abz-Gly-Ile-Val-Arg-Ala-Lys(Dnp)-OH at 37 °C on a Tecan Infinite M1000 (Mannedorf, Switzerland) spectrofluorometer. All assay mixtures contained 5% (v/v) DMSO. To prevent false-positive inhibition due to the formation of compound aggregates, 0.01% Triton X-100 was used. All measurements were performed in triplicate and repeated twice. The relative inhibition was calculated using the following equation: relative inhibition (%) = 100(1 – v i/v o), where v i and v o designate the reaction velocities in the presence and absence of inhibitor, respectively.
# Colo320 cells = test: MTT cytotoxicity assay, Colo320; assay type: cell-based, human; settings: 72 h incubation
# Experimental: as §1
# (§6) Drug-sensitive Colo205 (ATCC-CCL-222) and ABCB1 (MDR1)-LRP expressing and doxorubicin-resistant Colo320/MDR-LRP (ATCC-CCL-220.1) human colonic adenocarcinoma cell lines were purchased from LGC Promochem (Teddington, U.K.). The cells were cultured in RPMI 1640 medium supplemented with 10% heat-inactivated fetal bovine serum, 2 mM L-glutamine, 1 mM Na-pyruvate, and 10 mM HEPES.
# The tested compound was dissolved in DMSO to prepare a 5 mM stock solution, which was diluted in complete culture medium, to study the effect of compounds on cell growth of human colonic adenocarcinoma cell lines. Doxorubicin was used as the positive control. The cells were treated with a trypsin-versene (EDTA) solution. […] Cell growth was determined by measuring the optical density (OD) at 540/630 nm with a Multiscan EX ELISA reader (Thermo Labsystems, Cheshire, WA). […]
# [2] = Stability of complex 4 in DMSO followed by 1H NMR; assay type: physicochemical
# Experimental: A Bruker Avance III HD Ascend 500 Plus instrument (Billerica, MA) was used for solution NMR studies. Spectra were recorded with a WATERGATE water suppression pulse scheme in the presence of 10% (v/v) D2O in most cases. DSS internal standard was added to samples to obtain reference peaks.
# Colo205 cells = test: MTT cytotoxicity assay, Colo205; assay type: cell-based, human; settings: 72 h incubation, MTT; read-out: IC50 Colo205
# Experimental: as §1, §6
# as §2, with “horizontally. The final volume of the wells containing compounds and cells was 200 μL. The plates were incubated at 37 °C for 72 h; at the end of the incubation period, 20 μL of MTT solution (from a stock solution of 5 mg/mL) was added to each well.” for “horizontally.”
# [3] = target: T2, cathepsin B (endopeptidase activity) (Homo sapiens, UniProt P07858); test: Relative inhibition of cathepsin B endopeptidase activity; assay type: biochemical; settings: 50 μM; substrate Z-Arg-Arg-AMC; pH 6.0
# T2 construct: made in house; host or cells: E. coli
# Description: as §3, §4, §5
# Behavior in blood serum = assay type: physicochemical, human; settings: concentration of 40 μM
compound,measurement,setting,value
"N#Cc1ccccc1.[C-]#[O+].[C-]#[O+].[C-]#[O+].[O-]n1ccccc1=S.[Re+] [complex 4, fac-[Re(CO)3(pth)(benzonitrile)]]",effect on viability of MCF-10A neoT cells,MCF-10A neoT cells,did not impair the viability
same,IC50,HeLa cells,7.96 ± 0.98 µM
same,relative inhibition cathepsin B exopeptidase,[1],37.5 ± 2.1%
same,IC50,Colo320 cells,10.5 ± 0.85 µM
same,bidentate pyrithione ligand coordination to rhenium(I),"[2]; 48 h monitoring period, light-exclusion",remained coordinated
same,time for complete replacement of benzonitrile with a solvent molecule,"[2]; light-exclusion conditions, 1H NMR",≤ 1 h
same,IC50,Colo205 cells,9.22 ± 0.53 µM
same,relative inhibition cathepsin B endopeptidase,[3],63.6 ± 0.8%
same,behavior in blood serum,Behavior in blood serum,precipitation
